Experiments:
TNFα = TNFα Inhibition Assay in PMBC (LPS-stimulated, ELISA); assay type: cell-based, human; details: LPS-stimulated PBMC; procedures substantially similar to Section 5.10
Method: Peripheral blood mononuclear cells (PBMC) from normal donors are obtained by Ficoll Hypaque (Pharmacia, Piscataway, N.J., USA) density centrifugation. Cells are cultured in RPMI 1640 (Life Technologies, Grand Island, N.Y., USA) supplemented with 10% AB+human serum (Gemini Bio-products, Woodland, Calif., USA), 2 mM L-glutamine, 100 U/ml penicillin, and 100 µg/ml streptomycin (Life Technologies).
PBMC (2×10^5 cells) are plated in 96-well flat-bottom Costar tissue culture plates (Corning, N.Y., USA) in triplicate. Cells are stimulated with LPS (from Salmonella abortus equi, Sigma cat. no. L-1887, St. Louis, Mo., USA) at 1 ng/ml final in the absence or presence of compounds. Compounds provided herein are dissolved in DMSO (Sigma) and further dilutions are done in culture medium immediately before use. The final DMSO concentration in all assays can be about 0.25%. Compounds are added to cells 1 hour before LPS stimulation. Cells are then incubated for 18-20 hours at 37° C. in 5% CO2, and supernatants are then collected, diluted with culture medium and assayed for TNF levels by ELISA (Endogen, Boston, Mass., USA). IC50s are calculated using non-linear regression, sigmoidal dose-response, constraining the top to 100% and bottom to 0%, allowing variable slope (GraphPad Prism v3.02).

Namalwa cells = test: Cell proliferation assay (3H-thymidine incorporation); assay type: cell-based; details: procedures substantially similar to Section 5.10
Method: Cell lines Namalwa, MUTZ-5, and UT-7 are obtained from the Deutsche Sammlung von Mikroorganismen und Zellkulturen GmbH (Braunschweig, Germany). The cell line KG-1 is obtained from the American Type Culture Collection (Manassas, Va., USA). Cell proliferation as indicated by ^3H-thymidine incorporation is measured in all cell lines as follows.
Cells are plated in 96-well plates at 6000 cells per well in media. The cells are pre-treated with compounds at about 100, 10, 1, 0.1, 0.01, 0.001, 0.0001 and 0 M in a final concentration of about 0.25% DMSO in triplicate at 37° C. in a humidified incubator at 5% CO2 for 72 hours. One microcurie of ^3H-thymidine (Amersham) is then added to each well, and cells are incubated again at 37 C in a humidified incubator at 5% CO2 for 6 hours. The cells are harvested onto UniFilter GF/C filter plates (Perkin Elmer) using a cell harvester (Tomtec), and the plates are allowed to dry overnight. Microscint 20 (Packard) (25 ÿl/well) is added, and plates are analyzed in TopCount NXT (Packard). Each well is counted for one minute. Percent inhibition of cell proliferation is calculated by averaging all triplicates and normalizing to the DMSO control (0% inhibition). Each compound is tested in each cell line in three separate experiments. Final IC50s are calculated using non-linear regression, sigmoidal dose-response, constraining the top to 100% and bottom to 0%, allowing variable slope. (GraphPad Prism v3.02).

IL-2 = IL-2 production by T cells (anti-CD3 stimulated, ELISA); assay type: cell-based, human; details: procedures substantially similar to Section 5.10
Method: PBMC are depleted of adherent monocytes by placing 1×10^8 PBMC in 10 ml complete medium (RPMI 1640 supplemented with 10% heat-inactivated fetal bovine serum, 2 mM L-glutamine, 100 U/ml penicillin, and 100 µg/ml streptomycin) per 10 cm tissue culture dish, in 37 C, 5% CO2 incubator for 30-60 minutes. The dish is rinsed with medium to remove all non-adherent PBMC. T cells are purified by negative selection using the following antibody (Pharmingen) and Dynabead (Dynal) mixture for every 1×10^8 non-adherent PBMC: 0.3 ml Sheep anti-mouse IgG beads, 15 1 anti-CD16, 15 1 anti-CD33, 15 1 anti-CD56, 0.23 ml anti-CD19 beads, 0.23 ml anti-HLA class II beads, and 56 1 anti-CD14 beads. The cells and bead/antibody mixture is rotated end-over-end for 30-60 minutes at 4 C. Purified T cells are removed from beads using a Dynal magnet. Typical yield is about 50% T cells, 87-95% CD3^+ by flow cytometry.
Tissue culture 96-well flat-bottom plates are coated with anti-CD3 antibody OKT3 at 5 μg/ml in PBS, 100 μl per well, incubated at 37° C. for 3-6 hours, then washed four times with complete medium 100 μl/well just before T cells are added. Compounds are diluted to 20 times of final in a round bottom tissue culture 96-well plate. Final concentrations are about 10 μM to about 0.00064 μM. A 10 mM stock of compounds provided herein is diluted 1:50 in complete for the first 20× dilution of 200 μM in 2% DMSO and serially diluted 1:5 into 2% DMSO. Compound is added at 10 μl per 200 l culture, to give a final DMSO concentration of 0.1%. Cultures are incubated at 37° C., 5% CO2 for 2-3 days, and supernatants analyzed for IL-2 and MIP-3 by ELISA (R&D Systems). IL-2 and MIP-3 levels are normalized to the amount produced in the presence of an amount of a compound provided herein, and EC50s calculated using non-linear regression, sigmoidal dose-response, constraining the top to 100% and bottom to 0%, allowing variable slope (GraphPad Prism v3.02).

| melting point [°C] | SMILES | ability to inhibit TNFα (activity range) (TNFα) | ability to inhibit proliferation of Namalwa cells (activity range) (Namalwa cells) | ability to stimulate IL-2 (activity range) (IL-2) |
| --- | --- | --- | --- | --- |
|  | Nc1cccc2c1CN(C1CCC(=S)NC1=O)C2=S (stereo not shown) [3-(4-Amino-1-thioxo-1,3-dihydro-isoindol-2-yl)-6-thioxo-piperidin-2-one] | μM-mM | μM-mM | μM-mM |
|  | Nc1cccc2c1CN(C1CCC(=O)NC1=O)C2=S (stereo not shown) [3-(4-Amino-1-thioxo-1,3-dihydro-isoindol-2-yl)-piperidine-2,6-dione] | μM-mM | μM-mM | μM-mM |
| 248 to 250 | O=C1NC(=S)CCC1N1Cc2c(cccc2[N+](=O)[O-])C1=S (stereo not shown) [3-(4-Nitro-1-thioxo-1,3-dihydro-isoindol-2-yl)-6-thioxo-piperidin-2-one] | μM-mM | μM-mM | μM-mM |

Source: patent US20090298882A1, “THIOXOISOINDOLINE COMPOUNDS AND COMPOSITIONS COMPRISING AND METHODS OF USING THE SAME” (priority 2008, published 2009)
